Assay results from US11597748B2, “Peptide having cytoprotective effect against environmental pollutant and use thereof” (CAREGEN CO., LTD., priority 2017, dated 2023).
No end group written: not given here.

Experiments:
[1] = test system: CYP1A1, TNF-a, IL-6, IL-1b, COX-2 mRNA; test: RT-PCR of CYP1A1 and inflammatory molecules induced by particulate matter; assay type: cell-based, human; conditions: HaCaT cells; 10 nM particulate matter; 50 μM peptide; 6 hours or 24 hours
Method: (§1) HaCaT cells, human keratinocyte cells, were seeded on a 6-well plate at a density of 3×10^5 cells/well and cultured overnight. Subsequently, 10 nM of particulate matter (PM) and 50 μM of the peptide consisting of an amino acid sequence of SEQ ID NO: 1, 2, or 3 were added to the culture medium. After 30 minutes of reaction, the cells were treated for 6 hours or 24 hours and collected to separate RNA therefrom. After quantifying RNA, cDNA was synthesized using a cDNA synthesis kit (Intron, Korea). Then, PCR was performed using a PCR PreMix kit (Intron, Korea) and a primer for each of CYP1A1, TNF-a, IL-6, IL-1b, and COX-2 shown in Table 5. Then, by running the resultant on a 5% agarose gel, the expression levels of mRNA of the growth factors were compared under the conditions of treating the respective samples, and the results are shown in FIGS. 7A to 7C.

[2] = test system: CYP1A1, TNF-a, IL-6, IL-1b, COX-2 mRNA; test: RT-PCR of CYP1A1 and inflammatory molecules induced by TCDD; assay type: cell-based, human; conditions: HaCaT cells; 10 nM TCDD; 50 μM peptide; 6 hours or 24 hours
Method: as §1, with “of TCDD” for “of particulate matter (PM)”, “Then, polymerase chain reaction (PCR)” for “Then, PCR”, “IL-6, IL-1 b,” for “IL-6, IL-1b,”, “Table 4.” for “Table 5.”, “FIGS. 5A” for “FIGS. 7A”, “to 5C.” for “to 7C.”

Substance	effect on expressions of CYP1A1 and inflammatory factors induced by particulate matter (in words) [1]	effect on expressions of CYP1A1 and inflammatory factors induced by TCDD (in words) [2]
DVENTS [SEQ ID NO: 3, DVENTS]	inhibiting expressions of CYP1 A1 and various inflammatory factors induced by particulate matter	inhibiting expressions of CYP1A1 and various inflammatory factors induced by TCDD
ILGRWCG [SEQ ID NO: 2, ILGRWCG]	inhibiting expressions of CYP1 A1 and various inflammatory factors induced by particulate matter	inhibiting expressions of CYP1A1 and various inflammatory factors induced by TCDD
KWGGGRY [SEQ ID NO: 1, KWGGGRY]	inhibiting expressions of CYP1 A1 and various inflammatory factors induced by particulate matter	inhibiting expressions of CYP1A1 and various inflammatory factors induced by TCDD
